ChEMBL document CHEMBL1208702, “Use of 2-[(18)F]fluoroethylazide for the Staudinger ligation - Preparation and characterisation of GABA(A) receptor binding 4-quinolones” (Bioorg Med Chem Lett, 2010)

Tests used:
[1] = Biodistribution in iv dosed Sprague-Dawley rats bladder and urine after 2 mins by gamma counter; format: ADME, organism-based; settings: rat, in vivo
[2] = Biodistribution in iv dosed Sprague-Dawley rats fat after 2 mins by gamma counter; format: ADME, organism-based, Adipose tissue; settings: rat, in vivo
[3] = system: Blood; test: Biodistribution in iv dosed Sprague-Dawley rats blood after 10 mins by gamma counter; format: ADME, organism-based; settings: rat, in vivo
[4] = system: Brain; test: Biodistribution in iv dosed Sprague-Dawley rats brain after 10 mins by gamma counter; format: ADME, organism-based; settings: rat, in vivo
[5] = system: Heart; test: Biodistribution in iv dosed Sprague-Dawley rats heart after 10 mins by gamma counter; format: ADME, organism-based; settings: rat, in vivo
[6] = system: Bone; test: Biodistribution in iv dosed Sprague-Dawley rats bone after 10 mins by gamma counter; format: ADME, organism-based, Bone element; settings: rat, in vivo
[7] = system: Liver; test: Biodistribution in iv dosed Sprague-Dawley rats liver after 10 mins by gamma counter; format: ADME, organism-based; settings: rat, in vivo
[8] = system: Lung; test: Biodistribution in iv dosed Sprague-Dawley rats lung after 10 mins by gamma counter; format: ADME, organism-based; settings: rat, in vivo
[9] = system: Spleen; test: Biodistribution in iv dosed Sprague-Dawley rats spleen after 10 mins by gamma counter; format: ADME, organism-based; settings: rat, in vivo
[10] = system: Muscle tissue; test: Biodistribution in iv dosed Sprague-Dawley rats muscle after 10 mins by gamma counter; format: ADME, organism-based; settings: rat, in vivo
[11] = system: Kidney; test: Biodistribution in iv dosed Sprague-Dawley rats kidneys after 10 mins by gamma counter; format: ADME, organism-based; settings: rat, in vivo
[12] = Biodistribution in iv dosed Sprague-Dawley rats stomach after 10 mins by gamma counter; format: ADME, organism-based; settings: rat, in vivo
[13] = Biodistribution in iv dosed Sprague-Dawley rats small intestine after 10 mins by gamma counter; format: ADME, organism-based; settings: rat, in vivo
[14] = Biodistribution in iv dosed Sprague-Dawley rats large intestine after 10 mins by gamma counter; format: ADME, organism-based; settings: rat, in vivo
[15] = Biodistribution in iv dosed Sprague-Dawley rats bladder and urine after 10 mins by gamma counter; format: ADME, organism-based; settings: rat, in vivo
[16] = Biodistribution in iv dosed Sprague-Dawley rats fat after 10 mins by gamma counter; format: ADME, organism-based, Adipose tissue; settings: rat, in vivo
[17] = system: Blood; test: Biodistribution in iv dosed Sprague-Dawley rats blood after 30 mins by gamma counter; format: ADME, organism-based; settings: rat, in vivo, 0.5 h
[18] = system: Brain; test: Biodistribution in iv dosed Sprague-Dawley rats brain after 30 mins by gamma counter; format: ADME, organism-based; settings: rat, in vivo, 0.5 h
[19] = system: Heart; test: Biodistribution in iv dosed Sprague-Dawley rats heart after 30 mins by gamma counter; format: ADME, organism-based; settings: rat, in vivo, 0.5 h
[20] = system: Bone; test: Biodistribution in iv dosed Sprague-Dawley rats bone after 30 mins by gamma counter; format: ADME, organism-based, Bone element; settings: rat, in vivo, 0.5 h
[21] = system: Blood; test: Biodistribution in iv dosed Sprague-Dawley rats blood after 0.5 min by gamma counter; format: ADME, organism-based; settings: rat, in vivo
[22] = system: Brain; test: Biodistribution in iv dosed Sprague-Dawley rats brain after 0.5 min by gamma counter; format: ADME, organism-based; settings: rat, in vivo
[23] = system: Heart; test: Biodistribution in iv dosed Sprague-Dawley rats heart after 0.5 min by gamma counter; format: ADME, organism-based; settings: rat, in vivo
[24] = system: Bone; test: Biodistribution in iv dosed Sprague-Dawley rats bone after 0.5 min by gamma counter; format: ADME, organism-based, Bone element; settings: rat, in vivo
[25] = system: Liver; test: Biodistribution in iv dosed Sprague-Dawley rats liver after 0.5 min by gamma counter; format: ADME, organism-based; settings: rat, in vivo
[26] = system: Lung; test: Biodistribution in iv dosed Sprague-Dawley rats lung after 0.5 min by gamma counter; format: ADME, organism-based; settings: rat, in vivo
[27] = system: Spleen; test: Biodistribution in iv dosed Sprague-Dawley rats spleen after 0.5 min by gamma counter; format: ADME, organism-based; settings: rat, in vivo
[28] = system: Muscle tissue; test: Biodistribution in iv dosed Sprague-Dawley rats muscle after 0.5 min by gamma counter; format: ADME, organism-based; settings: rat, in vivo
[29] = system: Kidney; test: Biodistribution in iv dosed Sprague-Dawley rats kidneys after 0.5 min by gamma counter; format: ADME, organism-based; settings: rat, in vivo
[30] = Biodistribution in iv dosed Sprague-Dawley rats stomach after 0.5 min by gamma counter; format: ADME, organism-based; settings: rat, in vivo
[31] = Biodistribution in iv dosed Sprague-Dawley rats small intestine after 0.5 min by gamma counter; format: ADME, organism-based; settings: rat, in vivo
[32] = Biodistribution in iv dosed Sprague-Dawley rats large intestine after 0.5 min by gamma counter; format: ADME, organism-based; settings: rat, in vivo
[33] = Biodistribution in iv dosed Sprague-Dawley rats bladder and urine after 0.5 min by gamma counter; format: ADME, organism-based; settings: rat, in vivo
[34] = Biodistribution in iv dosed Sprague-Dawley rats fat after 0.5 min by gamma counter; format: ADME, organism-based, Adipose tissue; settings: rat, in vivo
[35] = system: Blood; test: Biodistribution in iv dosed Sprague-Dawley rats blood after 2 mins by gamma counter; format: ADME, organism-based; settings: rat, in vivo
[36] = system: Brain; test: Biodistribution in iv dosed Sprague-Dawley rats brain after 2 mins by gamma counter; format: ADME, organism-based; settings: rat, in vivo
[37] = system: Heart; test: Biodistribution in iv dosed Sprague-Dawley rats heart after 2 mins by gamma counter; format: ADME, organism-based; settings: rat, in vivo
[38] = system: Bone; test: Biodistribution in iv dosed Sprague-Dawley rats bone after 2 mins by gamma counter; format: ADME, organism-based, Bone element; settings: rat, in vivo

## O=C(NCC[18F])c1c[nH]c2ccc(Cc3ccccc3)cc2c1=O
[1]
  Drug uptake: 0 %ID
[2]
  Drug uptake: 1.8 %ID
[3]
  Drug uptake: 2.8 %ID
[4]
  Drug uptake: 0.1 %ID
[5]
  Drug uptake: 0.3 %ID
[6]
  Drug uptake: 1.7 %ID
[7]
  Drug uptake: 33.7 %ID
[8]
  Drug uptake: 0.6 %ID
[9]
  Drug uptake: 0.2 %ID
[10]
  Drug uptake: 27.2 %ID
[11]
  Drug uptake: 2.1 %ID
[12]
  Drug uptake: 1 %ID
[13]
  Drug uptake: 24.5 %ID
[14]
  Drug uptake: 1.7 %ID
[15]
  Drug uptake: 0.8 %ID
[16]
  Drug uptake: 1.8 %ID
[17]
  Drug uptake: 1.5 %ID
[18]
  Drug uptake: 0.1 %ID
[19]
  Drug uptake: 0.2 %ID
[20]
  Drug uptake: 1.5 %ID
[21]
  Drug uptake: 8.7 %ID
[22]
  Drug uptake: 0.1 %ID
[23]
  Drug uptake: 2 %ID
[24]
  Drug uptake: 3 %ID
[25]
  Drug uptake: 14.6 %ID
[26]
  Drug uptake: 2.9 %ID
[27]
  Drug uptake: 0.2 %ID
[28]
  Drug uptake: 56.1 %ID
[29]
  Drug uptake: 4 %ID
[30]
  Drug uptake: 0.8 %ID
[31]
  Drug uptake: 4.7 %ID
[32]
  Drug uptake: 0.9 %ID
[33]
  Drug uptake: 0.2 %ID
[34]
  Drug uptake: 0.6 %ID
[35]
  Drug uptake: 4.2 %ID
[36]
  Drug uptake: 0.1 %ID
[37]
  Drug uptake: 1.1 %ID
[38]
  Drug uptake: 3 %ID
